Results published in patent US10189796B2, “[4-(1,3,3-trimethyl-2-oxo-3,4-dihydro-1H-quinoxalin-7-yl)phenoxy]ethyloxy compound or salt thereof” (SANTEN PHARMACEUTICAL CO., LTD., priority 2015, dated 2019).

System: carrageenin-caused conjunctivitis model of rats
Experiment: Conjunctivitis model evaluation test
Assay type: in vivo, rat
Conditions: 1% suspension, eye dropped 5 μL five times from 1 hour before to 3 hours after induction
Description: In order to evaluate an anti-inflammatory action of the present compound to conjunctivitis, an inhibitory effect on edema formation in a carrageenin-caused conjunctivitis model of rats was investigated. Incidentally, this effect was evaluated by calculating an edema formation inhibitory ratio from a weight of the edema in a base agent administered group (control group) and a weight of the edema in the test compound administered group.
A base agent containing a general additive(s) was added to the test compound to prepare test compound suspensions with 0.001% (W/V), 0.003% (W/V), 0.01% (W/V) and 1% (W/V). […]
Four hours after induction, rats under general anesthesia were sacrificed by decapitation method, conjunctival edema areas of both eyes were removed, and the weight of each was measured. The edema formation inhibitory ratio was calculated from the average value of the weight of the edema.
Based on the average value of the weight of the edema of the base agent administered group (control group), the edema formation inhibitory ratio of the test compound suspension eye drop group was calculated by the following calculation formula. […]

## COc1ccc(O)cc1-c1ccc2c(c1COc1cc(F)ccc1C)N(C)C(=O)C(C)(C)N2 [Control compound C, 8-(5-fluoro-2-methylphenoxymethyl)-7-(5-hydroxy-2-methoxyphenyl)-1,3,3-trimethyl-3,4-dihydro-1H-quinoxalin-2-one]
  Edema formation inhibitory ratio (%): 14%
